# The source made the active and inactive calls. The rule behind the calls is not given here.
# How the values were obtained:
# [1] = Tmax in Sprague-Dawley rat at 25 mg/kg, po formulated using SMEDDS administered once via gavage measured upto 24 hrs post dose by UPLC-MS/MS analysis; assay type: ADME, organism-based; conditions: in vivo
# [2] = AUC (0 to infinity) in Sprague-Dawley rat at 25 mg/kg, po administered once via gavage measured upto 24 hrs post dose by UPLC-MS/MS analysis; assay type: ADME, organism-based; design: time < 24 hrs, dose 25 mg/kg, route po; conditions: in vivo
# [3] = biological target: Histone deacetylase 5 (Homo sapiens, UniProt Q9UQL6); assay: Inhibition of human HDAC5 using Boc-Lys(trifluoroacetyl)-AMC as flurogenic substrate
# Histone deacetylase 5, sequence (Q9UQL6 whole entry): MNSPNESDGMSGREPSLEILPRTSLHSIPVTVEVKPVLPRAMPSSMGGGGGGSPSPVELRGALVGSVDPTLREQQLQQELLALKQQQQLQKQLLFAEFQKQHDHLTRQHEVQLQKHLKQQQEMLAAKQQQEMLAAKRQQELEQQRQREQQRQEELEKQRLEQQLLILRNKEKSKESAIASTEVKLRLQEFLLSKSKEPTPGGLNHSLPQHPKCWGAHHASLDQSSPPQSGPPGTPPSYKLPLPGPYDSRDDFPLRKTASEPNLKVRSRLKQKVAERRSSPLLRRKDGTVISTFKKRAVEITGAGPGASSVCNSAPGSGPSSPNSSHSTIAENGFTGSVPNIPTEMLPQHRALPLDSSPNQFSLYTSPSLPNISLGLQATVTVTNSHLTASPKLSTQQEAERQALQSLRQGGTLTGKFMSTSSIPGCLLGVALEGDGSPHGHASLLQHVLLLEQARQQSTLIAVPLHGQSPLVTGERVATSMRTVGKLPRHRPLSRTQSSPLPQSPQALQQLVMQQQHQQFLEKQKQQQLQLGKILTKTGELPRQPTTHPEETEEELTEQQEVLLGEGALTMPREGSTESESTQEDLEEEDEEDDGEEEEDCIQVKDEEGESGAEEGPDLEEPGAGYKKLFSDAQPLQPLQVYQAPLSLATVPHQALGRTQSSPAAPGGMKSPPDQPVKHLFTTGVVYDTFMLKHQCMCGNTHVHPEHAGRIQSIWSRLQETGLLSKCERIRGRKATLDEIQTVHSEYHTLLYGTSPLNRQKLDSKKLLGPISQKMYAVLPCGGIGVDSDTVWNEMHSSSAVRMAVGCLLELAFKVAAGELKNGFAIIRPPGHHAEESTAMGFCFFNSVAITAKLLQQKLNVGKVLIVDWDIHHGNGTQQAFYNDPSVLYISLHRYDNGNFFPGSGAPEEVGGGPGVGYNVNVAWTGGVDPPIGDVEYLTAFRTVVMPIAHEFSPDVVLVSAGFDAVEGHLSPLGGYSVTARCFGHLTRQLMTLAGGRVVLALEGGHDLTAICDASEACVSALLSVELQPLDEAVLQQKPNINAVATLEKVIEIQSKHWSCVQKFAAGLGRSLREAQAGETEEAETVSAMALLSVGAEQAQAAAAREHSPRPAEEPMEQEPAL
# [4] = species: Homo sapiens; assay: Selectivity ratio of IC50 for […] IC50 for human full length recombinant MAO-B
# [5] = Metabolic stability in Beagle dog hepatocyte assessed as parent compound remaining at 10 uM incubated for 120 mins by LC-MS/MS analysis; assay type: ADME, cell-based, Canis lupus familiaris; conditions: hepatocytes, read-out: Stability
# [6] = Metabolic stability in Beagle dog hepatocyte assessed as half life at 10 uM by LC-MS/MS analysis; assay type: ADME, cell-based, Canis lupus familiaris; conditions: hepatocytes
# [7] = species: Homo sapiens; assay: Selectivity ratio of IC50 for human HDAC5 to IC50 for human HDAC6
# [8] = Metabolic stability in Sprague-Dawley rat hepatocyte assessed as half life at 10 uM by LC-MS/MS analysis; assay type: ADME, cell-based; conditions: hepatocytes
# [9] = Metabolic stability in Beagle dog hepatocyte assessed as parent compound remaining at 10 uM by LC-MS/MS analysis; assay type: ADME, cell-based, Canis lupus familiaris; conditions: hepatocytes, read-out: Stability
# [10] = C0 in Sprague-Dawley rat at 2 mg/kg, iv administered as single dose through tail vein measured upto 24 hrs post dose by UPLC-MS/MS analysis; assay type: ADME, organism-based; conditions: in vivo
# [11] = Metabolic stability in human hepatocyte assessed as intrinsic clearance at 10 uM by LC-MS/MS analysis; assay type: ADME, cell-based; conditions: hepatocytes, read-out: CLH
# [12] = Volume of distribution at steady state in Sprague-Dawley rat at 2 mg/kg, iv administered as single dose through tail vein measured upto 24 hrs post dose by UPLC-MS/MS analysis; assay type: ADME, organism-based; conditions: in vivo, read-out: Vdss
# [13] = biological target: Histone deacetylase 1 (Homo sapiens, UniProt Q13547); assay: Inhibition of human HDAC1 (379 to 382 residues) using RHKKAc as flurogenic substrate
# Histone deacetylase 1, sequence (Q13547 whole entry, the tested form may be a part): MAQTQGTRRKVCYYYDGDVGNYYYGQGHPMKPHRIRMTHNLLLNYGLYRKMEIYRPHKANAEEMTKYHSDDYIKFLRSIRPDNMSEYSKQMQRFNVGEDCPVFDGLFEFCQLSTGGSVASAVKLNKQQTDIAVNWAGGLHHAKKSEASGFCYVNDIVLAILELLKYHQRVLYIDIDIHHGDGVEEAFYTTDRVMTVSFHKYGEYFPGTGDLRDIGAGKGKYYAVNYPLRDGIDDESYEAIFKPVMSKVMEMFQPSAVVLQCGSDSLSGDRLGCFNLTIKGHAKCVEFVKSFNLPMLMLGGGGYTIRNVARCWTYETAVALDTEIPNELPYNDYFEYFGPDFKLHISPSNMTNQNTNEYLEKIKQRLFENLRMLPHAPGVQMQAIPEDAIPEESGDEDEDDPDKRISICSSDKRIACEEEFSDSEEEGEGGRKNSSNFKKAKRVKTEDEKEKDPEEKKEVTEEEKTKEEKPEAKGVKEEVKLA
# [14] = Metabolic stability in human hepatocyte assessed as parent compound remaining at 10 uM incubated for 30 mins by LC-MS/MS analysis; assay type: ADME, cell-based; conditions: hepatocytes, read-out: Stability
# [15] = biological target: Lysine-specific histone demethylase 1A (Homo sapiens) (UniProt O60341); assay: Inhibition of LSD1 (unknown origin) using […] as substrate at 1 uM incubated for 48 hrs followed by substrate addition and measured after 2 hrs by microplate reader analysis; conditions: time 50.0 hrs
# [16] = test system: PC-3; assay: Antitumor activity against human PC-3 cells xenografted in athymic nude mouse assessed as tumor growth inhibition at 100 mg/kg, po qd measured upto 25 days by caliper method relative to control; assay type: functional; conditions: PC-3, 600 h, time <= 25 day, read-out: TGI
# [17] = Metabolic stability in Beagle dog hepatocyte assessed as intrinsic clearance at 10 uM by LC-MS/MS analysis; assay type: ADME, cell-based, Canis lupus familiaris; conditions: hepatocytes, read-out: CLH
# [18] = test system: DU-145; assay: Induction of H3K4ME2 accumulation in human DU-145 cells at 0.5 to 10 uM incubated for 48 hrs by Western blot analysis; assay type: functional, cell-based; conditions: dose 0.5-10 µM
# [19] = species: Homo sapiens; assay: Selectivity ratio of IC50 for human HDAC2 to IC50 for human HDAC6
# [20] = test system: HUVEC; assay: Cytotoxicity against HUVEC cells assessed as reduction in cell viability at upto 10 uM incubated for 48 hrs by MTT assay; assay type: toxicity, cell-based; conditions: human
# [21] = AUC (0 to infinity) in Sprague-Dawley rat at 2 mg/kg, iv administered as single dose through tail vein measured upto 24 hrs post dose by UPLC-MS/MS analysis; assay type: ADME, organism-based; design: dose 2 mg/kg, time < 24 hrs, route iv; conditions: in vivo
# [22] = biological target: Histone deacetylase 3 (Homo sapiens, UniProt O15379); assay: Inhibition of human HDAC3 (379 to 382 residues) using RHKKAc as flurogenic substrate
# Histone deacetylase 3, sequence (O15379 whole entry, the tested form may be a part): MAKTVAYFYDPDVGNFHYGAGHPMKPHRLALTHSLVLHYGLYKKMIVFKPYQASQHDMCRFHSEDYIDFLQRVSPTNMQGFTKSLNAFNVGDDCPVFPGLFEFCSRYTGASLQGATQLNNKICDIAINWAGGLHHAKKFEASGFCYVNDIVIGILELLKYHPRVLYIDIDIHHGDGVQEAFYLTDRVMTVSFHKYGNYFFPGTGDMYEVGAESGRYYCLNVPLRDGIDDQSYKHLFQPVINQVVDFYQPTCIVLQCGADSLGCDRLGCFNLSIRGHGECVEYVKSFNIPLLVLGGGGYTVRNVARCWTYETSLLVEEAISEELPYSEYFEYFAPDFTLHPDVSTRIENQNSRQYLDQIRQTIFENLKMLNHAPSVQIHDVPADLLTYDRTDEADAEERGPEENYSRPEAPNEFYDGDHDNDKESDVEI
# [23] = species: Homo sapiens; assay: Selectivity ratio of IC50 for human HDAC7 to IC50 for human HDAC6
# [24] = species: Homo sapiens; assay: Selectivity ratio of IC50 for human HDAC1 to IC50 for human HDAC6
# [25] = Metabolic stability in Sprague-Dawley rat hepatocyte assessed as parent compound remaining at 10 uM incubated for 60 mins by LC-MS/MS analysis; assay type: ADME, cell-based; conditions: hepatocytes, read-out: Stability
# [26] = Metabolic stability in Beagle dog hepatocyte assessed as parent compound remaining at 10 uM incubated for 60 mins by LC-MS/MS analysis; assay type: ADME, cell-based, Canis lupus familiaris; conditions: hepatocytes, read-out: Stability
# [27] = biological target: T1, Amine oxidase [flavin-containing] B (Homo sapiens, UniProt P27338); assay: Inhibition of human full length recombinant MAO-B expressed in insect cells using kynuramine as substrate; assay type: cell-based
# T1 sequence (P27338 whole entry): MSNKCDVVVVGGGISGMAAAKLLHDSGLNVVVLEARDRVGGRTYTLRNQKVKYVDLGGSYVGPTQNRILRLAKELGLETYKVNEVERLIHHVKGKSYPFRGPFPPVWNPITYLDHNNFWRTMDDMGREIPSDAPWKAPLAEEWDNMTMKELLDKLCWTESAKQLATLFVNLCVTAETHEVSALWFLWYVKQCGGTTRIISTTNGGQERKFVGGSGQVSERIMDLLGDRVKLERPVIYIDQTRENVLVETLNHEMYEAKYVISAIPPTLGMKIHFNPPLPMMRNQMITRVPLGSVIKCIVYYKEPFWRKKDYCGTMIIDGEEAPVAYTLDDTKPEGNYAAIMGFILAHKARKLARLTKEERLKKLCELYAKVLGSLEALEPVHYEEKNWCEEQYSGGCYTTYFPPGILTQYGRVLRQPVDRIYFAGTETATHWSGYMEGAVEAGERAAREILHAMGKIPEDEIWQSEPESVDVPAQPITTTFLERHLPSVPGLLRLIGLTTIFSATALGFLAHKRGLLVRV
# [28] = AUC (0 to 24 hrs) in Sprague-Dawley rat at 25 mg/kg, po administered once via gavage measured upto 24 hrs post dose by UPLC-MS/MS analysis; assay type: ADME, organism-based; design: dose 25 mg/kg, time < 24 hrs, route po; conditions: in vivo
# [29] = Metabolic stability in human hepatocyte assessed as parent compound remaining at 10 uM by LC-MS/MS analysis; assay type: ADME, cell-based; conditions: hepatocytes, read-out: Stability
# [30] = species: Homo sapiens; assay: Selectivity ratio of IC50 for human HDAC4 to IC50 for human HDAC6
# [31] = test system: DU-145; assay: Antitumor activity against human DU-145 cells xenografted in athymic nude mouse assessed as tumor growth inhibition at 100 mg/kg, po administered twice daily and measured upto 60 days by caliper method relative to control; assay type: functional; conditions: DU-145, 1440 h, time <= 60 day, read-out: TGI
# [32] = test system: PC-3; assay: Antitumor activity against human PC-3 cells xenografted in athymic nude mouse assessed as tumor growth inhibition at 50 mg/kg, po qd measured upto 25 days by caliper method relative to control; assay type: functional; conditions: PC-3, 600 h, time <= 25 day, read-out: TGI
# [33] = Oral bioavailability in Sprague-Dawley rat at 25 mg/kg formulated using SMEDDS administered once via gavage measured upto 24 hrs post dose by UPLC-MS/MS analysis; assay type: ADME, organism-based; conditions: in vivo
# [34] = species: Homo sapiens; assay: Selectivity ratio of IC50 for human HDAC8 to IC50 for human HDAC6
# [35] = Half life in Sprague-Dawley rat at 25 mg/kg, po administered once via gavage measured upto 24 hrs post dose by UPLC-MS/MS analysis; assay type: ADME, organism-based; conditions: in vivo
smiles,measurement,setting,value
C#CCN(C)Cc1cccc(NC(=O)CCCCCCC(=O)NO)c1,Tmax,[1],0.9 h
same,AUC(0-inf),[2],113 ng·h/mL
same,IC50,[3],13.4 µM
same,Ratio IC50,[4],84
same,"remaining at 2 h, 10 µM",[5],66.7%
same,half-life at 10 µM,[6],3.61 h
same,Ratio IC50,[7],670
same,half-life at 10 µM,[8],1.56 h
same,remaining at 10 µM,[9],100%
same,C0 at 24 h,[10],38.1 ng/mL
same,CLint scaled at 10 µM,[11],9.78 mL/min/kg
same,Vd,[12],247 L/kg
same,IC50,[13],0.673 µM
same,"remaining at 0.5 h, 10 µM",[14],103%
same,inhibition,[15],Active
same,inhibition in vivo at 100 mg/kg,[16],53.1%
same,CLint scaled at 10 µM,[17],21.6 mL/min/kg
same,Activity,[18],Active
same,Ratio IC50,[19],77
same,Activity,[20],Non-Toxic
same,AUC(0-inf),[21],76.8 ng·h/mL
same,IC50,[22],0.133 µM
same,Ratio IC50,[23],> 500
same,Ratio IC50,[24],33.6
same,"remaining at 1 h, 10 µM",[25],52.5%
same,"remaining at 1 h, 10 µM",[26],81.2%
same,IC50,[27],67 µM
same,AUC(0-t) at 24 h,[28],108 ng·h/mL
same,remaining at 10 µM,[29],100%
same,Ratio IC50,[30],> 500
same,inhibition in vivo at 100 mg/kg,[31],73.6%
same,inhibition in vivo at 50 mg/kg,[32],36.9%
same,bioavailability,[33],62.1%
same,Ratio IC50,[34],10.5
same,half-life,[35],3.4 h

# Reference: ChEMBL document CHEMBL5096208, “Installation of Pargyline, a LSD1 Inhibitor, in the HDAC Inhibitory Template Culminated in the Identification of a Tractable Antiprostate Cancer Agent” (J Med Chem, 2021)
